Laboratory results reported in patent US10907159B2, “Methods of treating cancer by inhibition of DNA repair proteins using antisense based therapies” (SARISSA INC., priority 2015, dated 2021).

Assays:
[1] = test system: DU145 human prostate cancer cells; settings: BR1 pretreatment; FIG. 37
Method: Cells were treated for 4 hours with ASO, after which one volume of medium was added and cells were incubated for a further 20 hours. ASO-containing medium was removed and replaced with fresh medium. Cells were then incubated for 4 days and cell numbers assessed. Proliferation of BR1-treated cells was calculated as a percent of proliferation of non-targeting ASO-treated control cells. Initial cell density varied among cell lines.

BRCA2 mRNA = test: RT-qPCR of BRCA2 mRNA in A549 cells after OLIGO transfection; type: cell-based, human; settings: 20 nM OLIGO, 24 hours post-transfection; FIG. 16
Method: (§1) Briefly, A549 cells seeded at a density of 2.0×10^5 per flask were transfected with 20 nM of OLIGO specific for each target or control OLIGO using Lipofectamine 2000 as the transfection reagent. Twenty four hours post-transfection mRNA was extracted and reverse transcribed into cDNA. RT-qPCR was performed for target mRNA levels using TaqMan reagents according to established protocols.

TS mRNA = test: RT-qPCR of TS mRNA in A549 cells after OLIGO transfection; type: cell-based, human; settings: 20 nM OLIGO, 24 hours post-transfection; FIG. 16
Method: as §1

[2] = test system: EPT1 prostate epithelial cells; test: Veliparib after BR1 pretreatment; type: cell-based; settings: FIG. 37
[3] = test system: HN-5a and HN-5a/carbo-15a head and neck squamous carcinoma cells; test: Cisplatin sensitivity after ASO transfection (cell counting, colony forming); type: cell-based, human; settings: FIG. 51
Method: HN-5a cells are parental, cisplatin-sensitive human head and neck squamous carcinoma cells, and HN-5a/carbo-10a and HN-5a/carbo-15a cells are cisplatin-resistant lines derived from HN-5a cells (Ferguson et al., Drug Metab. Dispos. 27:1399-1405, 1999). Cells were exposed to cisplatin and effects on proliferation were assessed 72 h after drug treatment. HN-5a cells (b) and HN-5a/carbo-15a cells (c) were transfected with control (black circles) or BRCA2 (white circles) ASO, treated with varying concentrations of cisplatin and then counted 96 h post-transfection. HN-5a cells (d) and […] cells (e) were transfected with control or BRCA2 ASO, treated with different concentrations of cisplatin for 6 h, and then re-plated at a density of 500 cells per well to determine colony forming ability. *Different from cells treated with control ASO using a Student's t-test (p<0.05).

A549b cells = test: cells; type: cell-based, human; settings: for enhancement of cisplatin (words): BR1 ASO pretreatment, FIGS. 38, 50
Method: OLIGOs were introduced into cells with the use of Lipofectamine 2000 (LFA2K) (Invitrogen, Burlington, Ontario, Canada). OLIGOs were mixed with LFA2K at a ratio of 0.2 μg/ml per 10 nM OLIGO. The mixture was prepared at 11× the final concentration to which cells were exposed, so that 200 μL was added to 2 mL of medium in which cells were plated. After incubating at room temperature for 20 minutes, according to manufacturer's instructions, the OLIGOs were added to the cell medium. The OLIGO/LFA2K mix was then incubated (37° C.) on the cells for 4 hours, after which a second volume of medium was added. Cells were then incubated for 20 hours. Following this incubation, the OLIGO-containing medium was replaced with OLIGO-free medium.
For cells treated with the drug olaparib, for the purposes of determining whether inhibitory activity was enhanced by the OLIGO pretreatment, olaparib was added at this time, in concentrations of from 0.01 μM to 3 μM. At this point, replicate flasks from the OLIGO-treatment were used to enumerate cell content, as this varied among treatments over the initial 24-hour exposure. This was done so that the effect of treatment with olaparib could be ascertained based on the cell population that was present at the time of initiation of exposure to olaparib. Exposure to the olaparib was initiated by addition of 0.2-volume of a preparation of the drug, at 6× final concentration in growth medium, to the fresh drug-free medium on the cells (1 ml of drug into 5 ml of medium). Following a further 4-day incubation, the proliferation of the treated cells (fold-increase in cell number) was calculated as a percentage of that of control cells. Cell numbers were enumerated on an electronic particle counter (Beckman Coulter, Mississauga, ON). As indicated in Example 1, for the purpose of determining the anti-proliferative effect of antisense OLIGOs alone, the proliferation of cells treated with antisense OLIGOs was calculated as a percent of that of cells treated with an equivalent concentration of non-complementary control OLIGO (in this case OLIGO 32). However, for the purpose of determining the anti-proliferative effect of olaparib against antisense or non-complementary (control) OLIGO-treated cells, the proliferation was calculated as a percent of cells treated with the respective OLIGO.
These experiments were carried out essentially as described in Example 3, with the following changes. The drug tested was cisplatin instead of olaparib, and cisplatin was tested in concentrations ranging from 0.5 μM to 2 μM.
These experiments were carried out essentially as described in Example 3, with the following changes. The drug tested was melphalan in concentrations ranging from 2 μM to 10 μM.
These experiments were carried out essentially as described in Example 3, with the following changes. The drug tested was carboplatin at concentrations ranging from 5 μM to 40 μM.
These experiments were carried out essentially as described in Example 3, with the following changes. The drug tested was oxaliplatin was tested in concentrations ranging from 0.2 μM to 2.5 μM.
Cisplatin was added to the final concentration indicated, and as described in Example 3. Cells were incubated for 4 days, at which time cell number was counted. Proliferation was calculated as a percent of siRNA-treated, non-cisplatin-treated controls.

Substance: 5′-guaucuCTTGACGTuccuua-3′ (GUAUCUCTTGACGTUCCUUA; gapmer, lower-case wings modified, type not given here) [BR1]
- enhancement of veliparib [1]: enhances veliparib
- effect on BRCA2 mRNA level (BRCA2 mRNA): reduction in BRCA2 mRNA
- effect on TS mRNA level (TS mRNA): no significant effect on TS mRNA
- enhancement of veliparib [2]: little or not at all
- effect on acquired cisplatin resistance [3]: reverses acquired cisplatin resistance
- enhanced inhibition of proliferation by olaparib (% decrease in the IC50 value) (A549b cells; A549 cells, ASO pre-incubation, FIGS. 34, 35): up to 95%
- enhancement of cisplatin (words) (A549b cells; A549 cells): enhances cisplatin
- enhancement of cisplatin (words) (A549b cells; A549 cells, listed as BR-1): enhances the antiproliferative activity of cisplatin or melphalan
- enhanced the anti-proliferative effect of olaparib (A549b cells; BR1 pretreatment, at a given concentration of olaparib, FIG. 2): over 40%
- enhancement of veliparib (A549b cells; BR1 vs ODN 32, A549 cells, FIGS. 36, 37): enhances veliparib
